According to patent US20200330447A1, “CANCER TREATMENT VIA REPOSITIONED TRICYCLIC ANTI-DEPRESSANT-LIKE DRUGS AS ANTI-CANCER AGENTS AND NEW COMBINATIONS OF SUCH DRUGS” (Board of Supervisors of Louisiana State University and …, priority 2015, published 2020):
Counter-ions that a name gives are not always drawn.

What follows are compounds tested on DU145 prostate cancer cells (assay: High content imaging-based screen (Cellomics) for lysosome migration inhibitors). Conditions: EIPA 25 uM, 16 hours.
Type: cell-based
Description: DEVELOPMENT OF A HIGH CONTENT IMAGING-BASED SCREEN: The followings process was followed to identify chemicals that were lysosome migration inhibitors. DU145 prostate cancer cells were seeded in 96 well flat bottom black walled plates at 4,500 cells per well. All compounds and controls were exposed to RPMI bicarbonate buffered media (pH 6.4). RPMI buffered media titrated at pH of 6.4-6.8 was added to column 12 after the media was removed and serves as negative control (low acidic pH so lysosomes move out). […] The 4 compound libraries chosen to screen were the NIH Clinical Collection (450 drugs), Prestwick (1200 drugs), Prestwick phytochemical and the Green Pharma collection (xx drugs). Compounds were diluted with buffered RPMI media to 2 micrograms per ml concentrations. Individual compounds to be screened were added robotically as a single compound per well through columns 2-11. Plates were incubated at 37 degrees in 5% CO2 for 16 hours then the medium was removed and the cells were fixed with 4% cold paraformaldehyde (Sigma-Aldrich) for 20 minutes at 4 degrees. Fixed cells were washed once with PBS. To stain lysosomes, cells were incubated for 1 hour with LAMP1 antibody (H4A3) diluted in BSP (containing 0.25% BSA and 0.1% saponin in PBS) at 1/200. Cells were then washed with PBS 3 times then incubated for 1 hour with Dylight Donkey anti-mouse diluted at 1/200 in BSP. To stain the nucleus, cells were then washed with PBS 3 times and incubated for 20 minutes with 1×DAPI diluted in PBS. DAPI was washed off with PBS and cells were maintained in PBS for the duration of the screening process. Plates were mounted and read in a Cellomics Arrayscan automated fluorescence imager. The Cellomics platform allows for high content throughput screening by combining fluorescence microscopy with a multi-parameter image analysis. Cells were photographed using 20× objective in 2 fluorescent channels. A total of 15 different fields in each well, and at least 300 cells were imaged per well. The biocompartmental analysis algorithm was used to identify each cell by its nucleus (channel 1 recognized by the DAPI stain) and to generate a cytoplasmic mask (ring) of 12 pixels width in which the inner ring was 6 pixels away from the nucleus. The algorithm calculates the number of lysosomes inside the ring as indicated by fluorescent LAMP-1 positive puncta in channel 2 as a mean ring spot count. Therefore, when lysosomes move away from the nucleus and disperse throughout the cytoplasm, the number of spots representing lysosomes inside the cytoplasmic ring increases (low pH conditions). By contrast, lysosomes cluster near the nucleus the numbers of spot inside the cytoplasmic ring decreases (EIPA treated).
Z′-factor is a simple statistical coefficient used to assess performance and quality of the assay in high-throughput screening. It is calculated with the formula: Z′=1-(3σct+3σcb)/|μct−μcb|, where p indicates mean, a represents standard deviation, “ct” indicates the positive control, “cb” indicates the negative control. […] If the Z′ is more than 0.5, the assay is considered to be high quality assay.
The Z′ factor of the assay was determined from the EIPA (positive control) and low pH (negative control). Experiments were run in duplicate. Only plates with positive Z′ factor was used for analysis.

Compound	lysosome position, positive control
CCN(c1nc(N)c(C(=O)NC(=N)N)nc1Cl)C(C)C [EIPA]	lysosomes near the nucleus

Same assay, conditions: pH 6.4 media, 2 micrograms per ml, 16 hours

Compound	hit in screen for lysosome migration inhibitors (mean ring spot count)
CC[C@]1(O)C[C@H]2CN(CCc3c([nH]c4ccccc34)[C@@](C(=O)OC)(c3cc4c(cc3OC)N(C=O)[C@H]3[C@@](O)(C(=O)OC)[C@H](OC(C)=O)[C@]5(CC)C=CCN6CC[C@]43[C@@H]65)C2)C1 [vincristine]	hits
OC(c1cc(C(F)(F)F)nc2c(C(F)(F)F)cccc12)C1CCCCN1 (stereo not drawn) [mefloquine, [(R*,S*)-2,8-bis(trifluoromethyl)quinolin-4-yl]-(2-piperidyl)methanol]	hit
CCC1=C[C@@H]2CN(C1)Cc1c([nH]c3ccccc13)[C@@](C(=O)OC)(c1cc3c(cc1OC)N(C)[C@H]1[C@@](O)(C(=O)OC)[C@H](OC(C)=O)[C@]4(CC)C=CCN5CC[C@]31[C@@H]54)C2 [vinorelbine]	hits
COc1cc2c(c(OC)c1OC)-c1ccc(OC)c(=O)cc1[C@@H](NC(C)=O)CC2 [colchicine]	hits
O=C(Nc1ccc([N+](=O)[O-])cc1Cl)c1cc(Cl)ccc1O [niclosamide]	hits
CC(C)[C@@]1(NC(=O)[C@@H]2C[C@@H]3c4cccc5[nH]cc(c45)C[C@H]3N(C)C2)O[C@@]2(O)[C@@H]3CCCN3C(=O)[C@H](Cc3ccccc3)N2C1=O [dihydroergocristine mesylate, (5′α,10α)-9,10-Dihydro-12′-hydroxy-2′-(1-methylethyl)-5′-(phenylmethyl)-ergotaman-3′, 6′, 18-trione mesylate]	hits
COC(=O)Nc1nc2ccc(C(=O)c3ccccc3)cc2[nH]1 [mebendazole]	hits
CC[C@]1(O)C[C@@H]2CN(CCc3c([nH]c4ccccc34)[C@@](C(=O)OC)(c3cc4c(cc3OC)N(C)[C@H]3[C@@](O)(C(N)=O)[C@H](O)[C@]5(CC)C=CCN6CC[C@]43[C@@H]65)C2)C1 [vindesine]	hits
dihydroergotoxine mesylate	hits
O=C(c1ccc(OCCN2CCCCC2)cc1)c1c(-c2ccc(O)cc2)sc2cc(O)ccc12 [raloxifene]	hits
COc1ccc2c(c1)[nH]c1c(C)nccc12 [harmine]	hit
CCCSc1ccc2nc(NC(=O)OC)[nH]c2c1 [albendazole]	hits
COC(=O)Nc1nc2ccc(Sc3ccccc3)cc2[nH]1 [fenbendazole]	hits
COc1cc([C@@H]2c3cc4c(cc3[C@H](O)[C@H]3COC(=O)[C@H]23)OCO4)cc(OC)c1OC [podophyllotoxin]	hits
CC(=O)O[C@H]1C(=O)[C@@]2(C)[C@H]([C@H](OC(=O)c3ccccc3)[C@]3(O)C[C@H](OC(=O)[C@H](O)[C@@H](NC(=O)c4ccccc4)c4ccccc4)C(C)=C1C3(C)C)[C@]1(OC(C)=O)CO[C@@H]1C[C@@H]2O [paclitaxel]	hits

These compounds were tested on A172 glioblastoma cells (assay: Acidic media pH induced lysosome distribution, LAMP-1 IF imaging). Conditions: EIPA, low pHe media.
Type: cell-based
Description: A172 glioblastoma cells were treated overnight with 5 or 10 μM deptropine or pizotifen or with the deptropine or pizotifen in combination at 5 μM concentration. The next day, media was change to low pHe media containing deptropine or pizotifen and the cells were incubated for an additional 2 h. EIPA is a known inhibitor of lysosomal outward movement and represents the positive control. At the end of the incubation time, cells were fixed and stained for LAMP-1, filamentous actin and nuclei. Representative merged IF images depicting the effect of pHe 7.4, pHe 6.4, DMSO or deptropine and pizotifen on the distribution of lysosomes in A172 glioblastoma cells. On color versions of the Figure, red puncta are lysosomes, blue is nuclei and green is actin. As could be seen, lysosomes appear more peripherally distributed in A172 glioma cells than in cells treated with concentrations of 5 to 10 micromolar deptropine or pizotifen.
Cells were treated as described above with FIG. 2 but included a concentration of 0.1 micromolar and 1 micromolar deptropine and pizotifen.
Turning to FIG. 7, an additional aspect of this technology is how quickly deptropine and pizotifen act to move lysosomes towards the nucleus. […] A172 glioblastoma cells were treated with the 5 or 10 μM deptropine or pizofifen for 2 h and then with low pHe media containing the drugs for an additional 2 hours. At the end of incubation time, cells were fixed and stained for LAMP-1, filamentous actin, and nuclei. Representative merged IF images depicting the effect of DMSO, 5 and 10 μM deptropine or pizotifen upon 4 hours on the distribution of lysosomes, colored red in color images, in A172 glioblastoma cells. Also shown in color images are actin, colored green, and nuclei, colored blue.

Compound	acidic media induced lysosome redistribution, positive control
CCN(c1nc(N)c(C(=O)NC(=N)N)nc1Cl)C(C)C [EIPA]	prevented lysosome redistribution and induced clustering of lysosomes around the nucleus

The compounds below were run on Erk signaling pathway (assay: Lysosome inward movement in the presence of the MAPK inhibitor U0126, and Erk western blot). Conditions: deptropine and pizotifen 5 μM, 4 hours, A172 cells.
Type: cell-based
Description: Turning to FIG. 8, deptropine and pizotifen are shown to act through the Erk signaling pathway. In this experiment, A172 cells were treated with deptropine and pizotifen at 5 μM concentrations for 4 hours in the presence of the MAPK inhibitor U0126. I.F. microscopy was then performed. This helped allow the determination of the mechanism of action of deptropine and pizotifen.

Compound	effect of U0126 on inward movement of lysosomes induced by deptropine and pizotifen
N#CC(=C(/N)Sc1ccccc1N)/C(C#N)=C(\N)Sc1ccccc1N [U0126]	prevents the action of deptropine and pizotifen
